The text below walks through data of patent US20220313693A1, “METHODS OF TREATING HIV IN PEDIATRIC PATIENTS WITH RILPIVIRINE” (priority 2019, published 2022).

The structures appear in SMILES notation. Like-named read-outs stand apart in the source and are kept apart here.

Data set [1] in a line: clinical. Conditions: human, in vivo, 25 mg, mean ± SD, RPV 25 mg qd multiple dose; for AUC(0-t): AUC24h.
Data set [2] can be described thus: Intensive PK assessment of RPV at steady state, Phase II open-label trial in ARV-naive HIV-1 infected adolescents and children. Conditions: RPV 25 mg qd multiple dose.
For data set [3] the following is noted: Adults, pooled ECHO/THRIVE, RPV 25 mg qd, N=44; cited from earlier work.
The conditions of data set [4]: adult and pediatric participants receiving abacavir in clinical studies; cited from earlier work.
Where [5] appears, read: Adolescents (Cohort 1, ≥12 to <18 years), N=23.
Where [6] appears, read: Children ≥6-<12 years (Cohort 2), all bodyweights, N=10, preliminary analysis.
Setting [7] is: Children ≥6-<12 years (Cohort 2), ≥25 kg only, N=5, preliminary analysis.

For orientation: AUC(0-t) means the area under the concentration-time curve up to a stated or last time point. A lower AUC(0-t) goes with less exposure. A word on the Cmax: it is the peak of the concentration-time curve. `Cc1cc(/C=C/C#N)cc(C)c1Nc1ccnc(Nc2ccc(C#N)cc2)n1` [RPV, Rilpivirine] had an AUC(0-t) in data set [1] (setting [5]) of 1870 ± 717 ng·h/mL. In data set [1] (setting [6]), this compound showed an AUC(0-t) of 3020 ± 1610 ng·h/mL and a Cmax of 182 ± 110 ng/mL. In data set [1] (setting [7]), this compound yielded an AUC(0-t) of 2450 ± 735 ng·h/mL and a Cmax of 136 ± 46.1 ng/mL. In addition, in data set [2] (setting [5]), the “C0h (predose plasma concentration), mean ± SD” value turned out to be 80.8 ± 40.4 ng/mL; the “Cmin, mean ± SD” value is on record as 57.1 ± 26.3 ng/mL; the “tmax, median [range]” value is 5.00 (2.00-9.03) h. Besides, in data set [2] (setting [6]), the “C0h (predose plasma concentration), mean ± SD” value was found to be 118 ± 61.5 ng/mL and the “Cmin, mean ± SD” value was 77 ± 38.4 ng/mL. For the same compound, in data set [2] (setting [7]), the “C0h (predose plasma concentration), mean ± SD” value is listed as 104 ± 57 ng/mL; the “Cmin, mean ± SD” value is reported as 74 ± 29.7 ng/mL; the “tmax, median [range]” value was 4.00 (1.97-9.00) h. Moreover, in data set [3], the “AUC24h, mean ± SD” value was 2005 ± 970 ng·h/mL; the “C0h (predose plasma concentration), mean ± SD” value was 67.6 ± 39.0 ng/mL; the “Cmax, mean ± SD” value is recorded as 134 ± 72.0 ng/mL; the “Cmin, mean ± SD” value was 53.7 ± 28.3 ng/mL.
For `Nc1nc(NC2CC2)c2ncn([C@H]3C=C[C@@H](CO)C3)c2n1` [abacavir], the “Participants with hypersensitivity reactions” value in data set [4] is listed as “approximately 5%”.
